Laboratory results as given in PubChem BioAssay AID1250 (SRMLSC, 2008).
Active and inactive are the calls of the source.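 The calls were made as follows: active = inhibition of at least 30% at one or more tested concentrations; inactive = inhibition below 30% at every dose.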

Assay: antiviral protection against BTV-induced cell death – arbovirus, BSR cells, confirmation (AID 1250)
Conditions: BSR cells, Bluetongue virus CPE, ATP luminescence, 72 h; at 20 µM (top of the series)

| SMILES | CPE inhibition |
| --- | --- |
| O=C(Nc1nc2ccccc2s1)c1ccc(OCC2CCCO2)cc1 (centres undefined) | 5.66% (inactive) |
| Cc1nn(CC(=O)OCCOc2ccc(Br)cc2)c(C)c1[N+](=O)[O-] | 2.41% (inactive) |
| OC(CNCC1(N2CCCCC2)CCCCC1)COc1ccc(Cl)cc1Cl (centres undefined) | 11.6% (inactive) |
| CCCC(=O)Oc1ccccc1C1SCc2cc(C)c(C)cc2CS1 | 6.38% (inactive) |
| O=C1NC(=O)/C(=C\c2ccc(Oc3ccc([N+](=O)[O-])cn3)cc2)S1 | 12.8% (inactive) |
| Cc1cccc(S(=O)(=O)Nc2nc3ccccc3nc2NCc2ccco2)c1 | 12.1% (inactive) |
| OC(CNC1CCCCC1)CNC1CCCCC1 | 7.57% (inactive) |
| CSc1nsc2nc(=O)c(/C=C3\C=Nc4ccccc43)c(N)n12 | 20.5% (inactive) |
| O=C(Nc1sc2c(c1C(=O)O)CCC2)c1cccs1 | 14.7% (inactive) |
| Cc1ccc2nc(-c3ccc(Br)o3)oc(=O)c2c1 | 21.3% (inactive) |
| O=C(NNC(=S)NC1CCCCC1)c1ccc(Cl)s1 | 28.3% (inactive) |
| COc1ccccc1C(=O)NCC1CCN(c2ccc(S(=O)(=O)N3CCOCC3)cc2)CC1 | 6.04% (inactive) |
| C=CCOc1ccc(Br)cc1/C=C1/SC(=Nc2ccc(C(=O)O)cc2)NC1=O | 10.2% (inactive) |
| COc1ccccc1NC(=O)CN1CCC(n2c(C)nc3cc(F)ccc32)CC1 | 23.7% (inactive) |
| C#CCSc1ncc(S(=O)(=O)c2ccccc2)c(=O)[nH]1 | 1.65% (inactive) |
| COCCCNc1nc(-c2ccncc2)nc2ccccc12 | 7.45% (inactive) |
| CCc1nnc(NC(=O)c2cc3ccccc3oc2=O)s1 | -0.17% (inactive) |
| CCc1ccc(CCC(=O)Nc2ccccc2C(=O)O)o1 | 21.9% (inactive) |
| Cc1[nH]nc2c1-c1nc3ccccc3nc1C(C)(C)C2 | 15.7% (inactive) |
| Cc1nn2c(-c3ccccc3)c(-c3ccccc3)nc2[nH]c1=O | 9.59% (inactive) |

| SMILES | CPE inhibition |
| --- | --- |
| O=C(c1coc(=O)c(Br)c1)N1CCCc2ccccc21 | 4.27% (inactive) |
| Cc1ccc(-n2nc(C)c(NC(=O)CCl)c2C)cc1 | 13.3% (inactive) |
| Clc1cccc(-c2cc3nc4c(c(NCc5ccco5)n3n2)CCCC4)c1 | 10.7% (inactive) |
| Cc1ccc2c(c1)c(Sc1ccccc1)c(CC(=O)O)n2C | -0.49% (inactive) |
| COc1ccc2c(c1)c1nc3ccccc3nc1n2Cc1ccc(OC)c(OC)c1 | 15.8% (inactive) |
| Cc1ccc(C)c(Cn2nnc3c(=O)[nH]c(C(=O)Nc4ccc(F)cc4)nc32)c1 | 11.9% (inactive) |
| COCCSc1nnc(NC(=O)C2CCCCC2)s1 | 6.07% (inactive) |
| O=C(Nc1scc(-c2ccc(F)cc2)c1C(=O)O)c1ccco1 | 10% (inactive) |
| COC(=O)C1=C(C)N(Cc2ccco2)C(=O)N[C@@H]1c1cccc(C(F)(F)F)c1 | 21.6% (inactive) |
| O=C(N/N=C/c1c(O)n(CCc2ccccc2)c(=O)[nH]c1=O)c1ccncc1 | 7.83% (inactive) |
| COc1ccc(CCNCC(O)c2ccccc2)cc1 (centres undefined) | 13.7% (inactive) |
| Cc1oc(-c2ccccc2Cl)nc1CSCC(=O)N1CCCC1 | 16.4% (inactive) |
| Fc1ccccc1N1CCN(c2ncnc3[nH]ncc23)CC1 | 7.21% (inactive) |
| C=CCN(C(=O)c1cccc(N2C(=O)C3CC=CC(C)C3C2=O)c1)c1ccccc1 (centres undefined) | 8.5% (inactive) |
| CCOC(=O)c1c(O)c2c(n(Cc3ccco3)c1=O)CCCC2 | 14.7% (inactive) |
| O=C(Nc1ccccc1C(=O)O)c1ccc2ccccc2n1 | 16.2% (inactive) |
| Cc1cccc(-n2c3nc(=O)[nH]c(=O)c-3cc3cc([N+](=O)[O-])ccc32)c1 | 16.1% (inactive) |
| COc1cc(/C=C/C(=O)Nc2nnc(C(C)(C)C)s2)cc(OC)c1OC | 11.5% (inactive) |
| COc1ccccc1NC(=O)C12CC3CC(C1)CC(c1ccc(C)cc1)(C3)C2 | 18.9% (inactive) |
